Experimental data from US8562945B2, “Technetium- and rhenium-bis(heteroaryl) complexes and methods of use thereof” (Molecular Insight Pharmaceuticals, Inc., priority 2008, dated 2013).

Experiments:
CA-IX = CA-IX (Homo sapiens (Human), UniProt Q16790); test: Inhibition of carbonic anhydrase enzyme activity (4-nitrophenyl acetate hydrolysis), CA-IX; assay type: biochemical; conditions: purified human enzyme, pH 7.4, 25° C.
Method: (§1) Selective Inhibition of Carbonic Anhydrase Enzyme Activity. Compounds were tested for their ability to inhibit carbonic anhydrase isozymes II and IX in vitro. Purified human enzymes were from R&D Systems (Minneapolis, Minn.). The inhibition constants (Ki) for CA-II and CA-IX were determined by the method of Pocker and Stone. Initial rates of 4-nitrophenyl acetate hydrolysis catalyzed by the different carbonic anhydrase isozymes were measured spectrophotometrically at 400 nm. Solutions of substrate (1×10^−2 to 1×10^−6 M) were prepared in anhydrous acetonitrile. A molar extinction coefficient of 18,000 M^−1·cm^−1 was used for the 4-nitrophenolate formed by hydrolysis under the conditions of the experiment (9 mM Tris-HCl, 81 mM NaCl, pH 7.4, 25° C.). The enzyme concentrations were 100 nM for CA-IX and 30 nM for CA-II. Non-enzymatic hydrolysis rates, determined in the absence of added enzyme, were subtracted from the observed rates. […] Dilutions of inhibitor were added to enzyme solutions and preincubated for 10 min to allow for the formation of the E-I complex prior to the addition of substrate. Acetazolamide was included in all assays as positive controls.

CA-II = CA-II (Homo sapiens (Human), UniProt P00918); test: Inhibition of carbonic anhydrase enzyme activity (4-nitrophenyl acetate hydrolysis), CA-II; assay type: biochemical; conditions: purified human enzyme, pH 7.4, 25° C.
Method: as §1

[1] = Determination of Log P values of 99mTc-SAAC complexes; assay type: physicochemical; conditions: 99mTc complex; n-octanol / 25 mM pH=7.4 phosphate buffer
Method: Determination of Log P Values. The Log P values of the ^99mTc(I)-complexes were determined as follows. The ^99mTc-SAAC complexes were prepared and purified by RP-HPLC. The desired peak was collected and the sample was evaporated under a stream of nitrogen. The residue was dissolved in 25 μL of saline and placed in an equal volume of n-octanol (3 mL) and 25 mM pH=7.4 phosphate buffer (3 mL). The samples were mixed under vortex for 20 min, centrifuged at 8000 rpm for 5 min and three 100 μL aliquots were removed from both the aqueous and the organic layers for analysis on a gamma counter (Wallac 1282). Subsequently, 1 mL of the phosphate bufferTc-complex solution was removed and the process was repeated with fresh n-octanol, for a total number of six extractions to ensure full extraction of all the organic components. The partition coefficients were calculated using the equation: P=(activity concentration in n-octanol)/(activity concentration in aqueous layer). The Log P values reported were calculated from the average of the different measurements.

[2] = Complex stability: 99mTc cysteine and histidine challenge experiments; assay type: physicochemical; conditions: for time stable to excess histidine and cysteine challenges: 99mTc-SAAC complex, 37° C.
Method: 3. Tc-99m labeling. [^99mTc(CO)3(H2O)3]^+ was heated with [8-{N,N-di(pyridyl-2-methyl)}α-(fmoc)lysine] (DpK) in 0.5 mL (1 mg/mL) of methanol at 100° C. for 30 minutes. […] Labeling yields of >50% RCY, were achievable at levels as low as 2 μg/mL.
Complex stability: ^99mTc challenge experiments. The complexes were analyzed by HPLC for stability against cysteine and histidine challenge over time.

[3] = Rat tissue distribution of 99mTc complexes of example ligands (Table 6); assay type: in vivo, Sprague-Dawley Rats; conditions: 99mTc complex
Method: Rat Tissue Distribution Studies. The distribution and pharmacokinetics of selected ^99mTc-SAAC complexes were evaluated in normal male Sprague Dawley rats (180-200 grams) administered via the tail vein as a bolus injection (approximately 10 μCi/rat) in a constant volume of 0.1 ml. The animals (n=5 per time point) were euthanized by asphyxiation with carbon dioxide at 5, 30, 60, and 120 min post injection. Tissues (blood, heart, lungs, liver, spleen, kidneys, adrenals, stomach, intestines (with contents), testes, skeletal muscle, bone and brain) were dissected, excised, weighed wet, and counted in an automated γ-counter (LKB Model 1282, Wallac Oy, Finland). Tissue time-radioactivity levels expressed as percent injected dose per gram of tissue (% ID/g) was determined.
^99mTc Complexes of various example ligands in Sprague-Dawley Rats.

| Compound | Log P [1] | time stable to excess histidine and cysteine challenges [2] | Blood tissue distribution ([3]; 5 min) [% ID/g] | Blood tissue distribution ([3]; 30 min) [% ID/g] | Blood tissue distribution ([3]; 60 min) [% ID/g] | Blood tissue distribution ([3]; 120 min) [% ID/g] | GI tissue distribution ([3]; 5 min) [% ID/g] | GI tissue distribution ([3]; 30 min) [% ID/g] | GI tissue distribution ([3]; 60 min) [% ID/g] | GI tissue distribution ([3]; 120 min) [% ID/g] | Kidney tissue distribution ([3]; 5 min) [% ID/g] | Kidney tissue distribution ([3]; 30 min) [% ID/g] | Kidney tissue distribution ([3]; 60 min) [% ID/g] | Kidney tissue distribution ([3]; 120 min) | Liver tissue distribution ([3]; 5 min) [% ID/g] | Liver tissue distribution ([3]; 30 min) | Liver tissue distribution ([3]; 60 min) | Liver tissue distribution ([3]; 120 min) [% ID/g] | Sk. Muscle tissue distribution ([3]; 5 min) [% ID/g] | Sk. Muscle tissue distribution ([3]; 30 min) [% ID/g] | further results |
| --- | --- | --- | --- | --- | --- | --- | --- | --- | --- | --- | --- | --- | --- | --- | --- | --- | --- | --- | --- | --- | --- |
| [Re(CO)3][2-((pyridin-2-ylmethyl)(4-sulfamoylphenethyl)amino)acetic acid] [Compound 23-Re] | – | – | – | – | – | – | – | – | – | – | – | – | – | – | – | – | – | – | – | – | IC50 (CA-IX): 564 nM; IC50 (CA-II): 652 nM |
| N[C@@H](CCCCN(Cc1ccccn1)Cc1ccccn1)C(=O)O [DpK, [ε-{N,N-di(pyridyl-2-methyl)}α-lysine], reference compound] | −1.89 | more than 18 hours | 0.58 ± 0.05 | 0.07 ± 0.01 | 0.03 ± 0.01 | 0.01 ± 0.00 | 0.49 ± 0.08 | 0.89 ± 0.07 | 1.46 ± 0.09 | 2.73 ± 0.57 | 6.05 ± 1.03 | 4.94 ± 0.11 | 4.93 ± 0.43 | 3.89 ± .042 % ID/g | 3.36 ± 0.44 | 2.75 ± .011 % ID/g | 2.59 ± 0.08 % ID/g | 2.20 ± 0.06 | 0.18 ± 0.02 | 0.03 ± 0.00 | degradation by HPLC after cysteine or histidine challenge ([2]; 100 mM cysteine or histidine in PBS pH 7.2, 37° C., 18 h): no degradation; Sk. Muscle tissue distribution ([3]; 60 min): 0.03 ± 0.01 % ID/g; Sk. Muscle tissue distribution ([3]; 120 min): 0.01 ± 0.00 % ID/g |
| N[C@@H](CCCCN(Cc1nccs1)Cc1nccs1)C(=O)O [DtK, (dithiazole)lysine] | −2.40 | more than 18 hours | 3.32 ± 0.82 | 2.33 ± 0.26 | 1.4 ± 0.07 | 0.76 ± 0.12 | 0.3 ± 0.15 | 0.59 ± 0.13 | 0.73 ± 0.29 | 0.87 ± 0.2 | 3.26 ± 1.04 | 4.71 ± 0.41 | 4.78 ± 0.14 | 4.83 ± 0.41 % ID/g | 1.7 ± 0.42 | 1.93 ± 0.15 % ID/g | 2.05 ± .041 % ID/g | 2.61 ± 0.31 | 0.16 ± 0.05 | 0.16 ± 0.01 | Sk. Muscle tissue distribution ([3]; 60 min): 0.15 ± 0.02 % ID/g; Sk. Muscle tissue distribution ([3]; 120 min): 0.12 ± 0.01 % ID/g |
